Results published in ChEMBL document CHEMBL1201862, “PubChem BioAssay data set” (2004).
Activity calls are given as the source filed them.

Key:
[1] = inhibitors of firefly luciferase expression or activity, dose response, H4 neuroglioma cells, luminescence (AID 1990); format: functional, cell-based
[2] = Luminescence Cell-Based Dose Response HTS to Identify Inhibitors of 5'UTR Stem-Loop Driven Prion Protein mRNA Translation in H4 Neuroglioblastoma Cells. [Related pubchem assays: 1827 (Project Summary), 1813 (Primary HTS)]; format: functional
[3] = inhibitors of SNCA 5'UTR-driven reporter translation, confirmation, H4 neuroglioma cells, luminescence (AID 1988); format: functional, cell-based
[4] = target: T1, Replicative DNA helicase DnaB (Mycobacterium tuberculosis, UniProt P9WMR3); test: DnaB intein splicing inhibitors, dose response, biochemical, cell-free fluorescence (AID 449749); format: functional
T1 sequence (P9WMR3 whole entry): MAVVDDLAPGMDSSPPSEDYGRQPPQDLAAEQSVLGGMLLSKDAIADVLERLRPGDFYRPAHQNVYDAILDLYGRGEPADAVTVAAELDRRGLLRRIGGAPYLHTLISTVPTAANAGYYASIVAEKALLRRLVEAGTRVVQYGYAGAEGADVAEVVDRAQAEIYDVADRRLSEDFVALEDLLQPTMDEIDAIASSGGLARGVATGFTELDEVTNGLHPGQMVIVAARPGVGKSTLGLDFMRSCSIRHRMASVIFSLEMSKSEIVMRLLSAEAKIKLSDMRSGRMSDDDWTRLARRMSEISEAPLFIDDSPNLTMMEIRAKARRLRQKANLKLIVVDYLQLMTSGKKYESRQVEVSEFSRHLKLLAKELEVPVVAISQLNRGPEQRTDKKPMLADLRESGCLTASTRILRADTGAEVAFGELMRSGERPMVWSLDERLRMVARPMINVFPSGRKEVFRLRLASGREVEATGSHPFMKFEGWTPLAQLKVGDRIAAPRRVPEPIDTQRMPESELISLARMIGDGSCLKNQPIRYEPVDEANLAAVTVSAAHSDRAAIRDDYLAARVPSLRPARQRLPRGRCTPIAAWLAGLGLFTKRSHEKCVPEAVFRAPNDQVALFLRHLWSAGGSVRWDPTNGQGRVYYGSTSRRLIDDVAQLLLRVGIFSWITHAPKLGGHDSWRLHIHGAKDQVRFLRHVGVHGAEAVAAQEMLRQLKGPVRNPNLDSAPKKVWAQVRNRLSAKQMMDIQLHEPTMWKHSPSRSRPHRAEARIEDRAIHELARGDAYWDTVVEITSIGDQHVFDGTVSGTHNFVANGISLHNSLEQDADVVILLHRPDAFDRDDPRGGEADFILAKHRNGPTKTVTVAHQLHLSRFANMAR

Protein RecA = target: T2, Protein RecA (Mycobacterium tuberculosis, UniProt P9WHJ3); test: Fluorescence Cell-Free Homogeneous Dose Retest to Identify Inhibitors of RecA-Intein Splicing Activity. [Related pubchem assays (depositor defined):AID2097, AID2223, AID489010, AID492950]; format: functional
T2 sequence (P9WHJ3 whole entry): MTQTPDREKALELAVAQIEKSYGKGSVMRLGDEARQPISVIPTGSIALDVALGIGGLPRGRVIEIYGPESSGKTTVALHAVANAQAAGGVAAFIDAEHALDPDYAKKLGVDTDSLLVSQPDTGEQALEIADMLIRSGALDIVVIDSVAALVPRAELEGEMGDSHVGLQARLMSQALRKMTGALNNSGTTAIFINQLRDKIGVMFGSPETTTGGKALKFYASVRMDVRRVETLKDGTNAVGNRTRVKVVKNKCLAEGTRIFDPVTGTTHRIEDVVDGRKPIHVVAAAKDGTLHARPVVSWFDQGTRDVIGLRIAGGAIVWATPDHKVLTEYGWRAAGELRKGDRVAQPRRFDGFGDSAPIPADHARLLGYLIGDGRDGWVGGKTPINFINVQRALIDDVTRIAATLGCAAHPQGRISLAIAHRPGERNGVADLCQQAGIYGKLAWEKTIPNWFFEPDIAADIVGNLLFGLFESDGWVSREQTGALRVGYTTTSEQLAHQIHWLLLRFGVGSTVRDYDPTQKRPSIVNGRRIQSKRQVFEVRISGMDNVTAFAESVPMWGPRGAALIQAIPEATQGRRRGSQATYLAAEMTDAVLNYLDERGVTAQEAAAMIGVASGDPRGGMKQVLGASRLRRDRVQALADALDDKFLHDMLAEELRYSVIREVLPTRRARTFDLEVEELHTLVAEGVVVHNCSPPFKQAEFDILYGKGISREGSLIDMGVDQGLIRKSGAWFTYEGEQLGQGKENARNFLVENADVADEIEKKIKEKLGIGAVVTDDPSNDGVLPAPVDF

Cytochrome P450 2D6 = Cytochrome P450 2D6 (Homo sapiens, UniProt P10635);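 further: CYP2D6 member of a cytochrome P450 panel assay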
Cytochrome P450 2C9 = Cytochrome P450 2C9 (Homo sapiens, UniProt P11712)
[5] = Luminescence Cell-Based Dose Response HTS to Identify Activators of Luciferase Translation or Activity in H4 […] Cells. [Related pubchem assays: 1829 (Project Summary), 1814 (Primary HTS)]; format: functional
[6] = inhibitors of intracellular T. cruzi replication, confirmation, NIH3T3 host cells, beta-gal luminescence (AID 2044); format: functional, cell-based;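 further: intracellular parasites grown in NIH/3T3 mouse fibroblasts as host cells; luminescent beta-galactosidase reporter signal from transgenic T. cruzi replicating inside host cells; inhibitors lower the luminescence signal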
[7] = cytotoxicity toward NIH3T3 fibroblasts, dose response, counter-screen, cell-based, ATP luminescence, mouse fibroblasts (AID 2010); format: functional;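 further: cells exposed to compound for about 90 hours before reading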
[8] = target: T3, Rac GTPase-activating protein 1 (Homo sapiens, UniProt Q9H0H5); test: MgcRacGAP GTPase-activating activity inhibitors, confirmation, biochemical, ADP Hunter fluorescence, primary and confirmatory (AID 624330); format: functional
T3 sequence (Q9H0H5 whole entry): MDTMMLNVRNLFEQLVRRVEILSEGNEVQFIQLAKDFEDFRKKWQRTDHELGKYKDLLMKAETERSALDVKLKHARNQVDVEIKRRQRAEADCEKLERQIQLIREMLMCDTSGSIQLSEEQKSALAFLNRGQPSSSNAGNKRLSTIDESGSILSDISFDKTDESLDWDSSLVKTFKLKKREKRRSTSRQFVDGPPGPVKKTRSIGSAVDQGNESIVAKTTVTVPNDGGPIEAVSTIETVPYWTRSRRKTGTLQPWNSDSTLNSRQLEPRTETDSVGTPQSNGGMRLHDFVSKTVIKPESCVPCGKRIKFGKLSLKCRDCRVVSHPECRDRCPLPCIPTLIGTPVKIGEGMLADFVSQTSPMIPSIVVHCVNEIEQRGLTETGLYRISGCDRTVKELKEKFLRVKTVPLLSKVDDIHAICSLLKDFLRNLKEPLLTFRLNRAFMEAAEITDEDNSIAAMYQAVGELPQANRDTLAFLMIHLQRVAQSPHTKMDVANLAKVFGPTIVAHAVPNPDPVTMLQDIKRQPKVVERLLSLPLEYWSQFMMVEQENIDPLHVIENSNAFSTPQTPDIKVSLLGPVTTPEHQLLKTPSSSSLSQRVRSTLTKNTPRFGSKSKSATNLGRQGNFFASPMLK

Cytochrome P450 2C19 = Cytochrome P450 2C19 (Homo sapiens, UniProt P33261); test: Cytochrome panel assay with activity outcomes. Panel member name: p450-cyp2c19 Compounds with AC50 equal or less than 10 uM are considered active; format: functional; settings: read-out: AC50
Cytochrome P450 1A2 = target: T4, Cytochrome P450 1A2 (Homo sapiens, UniProt P05177);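 further: PubChem cytochrome P450 panel assay, CYP1A2 panel member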
T4 sequence (P05177 whole entry): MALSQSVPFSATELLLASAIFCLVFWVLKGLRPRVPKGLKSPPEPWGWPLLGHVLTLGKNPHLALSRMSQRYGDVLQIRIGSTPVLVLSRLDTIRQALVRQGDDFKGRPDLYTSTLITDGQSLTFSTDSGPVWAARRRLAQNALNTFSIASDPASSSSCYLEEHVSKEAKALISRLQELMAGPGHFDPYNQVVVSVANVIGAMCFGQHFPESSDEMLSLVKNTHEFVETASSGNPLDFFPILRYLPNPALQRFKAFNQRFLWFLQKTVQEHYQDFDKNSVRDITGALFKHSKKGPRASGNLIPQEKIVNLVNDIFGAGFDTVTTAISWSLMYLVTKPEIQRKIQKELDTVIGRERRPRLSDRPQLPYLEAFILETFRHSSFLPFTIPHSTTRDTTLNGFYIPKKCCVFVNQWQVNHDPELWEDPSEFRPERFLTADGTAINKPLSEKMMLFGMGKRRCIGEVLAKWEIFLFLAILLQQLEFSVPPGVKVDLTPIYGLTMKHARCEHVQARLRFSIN

H4 = test: Luminescence Cell-Based Dose Response HTS to Identify Activators of 5'UTR Stem-Loop Driven Prion Protein mRNA Translation in H4 Neuroglioblastoma Cells. [Related pubchem assays: 1829 (Project Summary), 1814 (Primary HTS)]; format: functional; settings: Homo sapiens

Chain of Cytochrome P450 2D6 (P10635 whole entry): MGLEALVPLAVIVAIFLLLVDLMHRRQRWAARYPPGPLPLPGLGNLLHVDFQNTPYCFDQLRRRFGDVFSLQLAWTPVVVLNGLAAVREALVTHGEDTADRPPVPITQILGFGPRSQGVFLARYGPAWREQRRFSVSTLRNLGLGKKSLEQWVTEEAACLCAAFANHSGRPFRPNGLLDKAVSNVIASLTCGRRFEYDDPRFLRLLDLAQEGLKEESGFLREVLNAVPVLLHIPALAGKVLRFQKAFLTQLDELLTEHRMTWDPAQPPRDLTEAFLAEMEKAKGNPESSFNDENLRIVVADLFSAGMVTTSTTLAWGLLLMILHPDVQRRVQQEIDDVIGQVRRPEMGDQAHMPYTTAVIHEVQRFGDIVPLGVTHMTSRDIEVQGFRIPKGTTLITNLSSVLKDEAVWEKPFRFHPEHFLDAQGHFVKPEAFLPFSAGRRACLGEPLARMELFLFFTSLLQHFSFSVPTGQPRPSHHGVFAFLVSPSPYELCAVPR
Chain of Cytochrome P450 2C9 (P11712 whole entry): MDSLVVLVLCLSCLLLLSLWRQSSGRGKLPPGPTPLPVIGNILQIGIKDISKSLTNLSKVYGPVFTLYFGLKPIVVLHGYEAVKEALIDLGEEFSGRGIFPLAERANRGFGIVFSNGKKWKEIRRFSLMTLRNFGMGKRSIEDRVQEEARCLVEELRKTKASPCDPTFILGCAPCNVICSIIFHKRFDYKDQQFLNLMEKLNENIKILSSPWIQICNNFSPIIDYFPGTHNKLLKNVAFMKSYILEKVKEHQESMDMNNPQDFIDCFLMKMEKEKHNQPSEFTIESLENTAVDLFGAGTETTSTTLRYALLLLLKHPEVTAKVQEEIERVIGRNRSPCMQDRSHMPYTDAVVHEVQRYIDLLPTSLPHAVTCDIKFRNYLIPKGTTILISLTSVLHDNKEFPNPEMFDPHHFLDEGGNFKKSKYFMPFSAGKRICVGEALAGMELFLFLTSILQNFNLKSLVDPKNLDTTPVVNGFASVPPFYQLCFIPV
Chain of Cytochrome P450 2C19 (P33261 whole entry): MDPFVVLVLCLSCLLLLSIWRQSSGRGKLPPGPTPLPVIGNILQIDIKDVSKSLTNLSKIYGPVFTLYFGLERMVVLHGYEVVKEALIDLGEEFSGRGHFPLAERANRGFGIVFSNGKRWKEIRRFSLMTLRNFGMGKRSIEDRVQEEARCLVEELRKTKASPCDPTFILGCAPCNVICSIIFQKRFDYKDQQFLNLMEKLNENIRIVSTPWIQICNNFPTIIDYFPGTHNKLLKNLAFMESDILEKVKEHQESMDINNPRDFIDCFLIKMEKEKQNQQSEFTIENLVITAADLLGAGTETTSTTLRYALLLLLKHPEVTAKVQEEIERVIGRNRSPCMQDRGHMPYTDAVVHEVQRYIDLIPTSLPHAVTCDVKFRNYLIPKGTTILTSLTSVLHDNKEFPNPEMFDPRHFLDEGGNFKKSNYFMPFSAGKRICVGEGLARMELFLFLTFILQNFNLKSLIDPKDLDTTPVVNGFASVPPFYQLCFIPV

| Structure (SMILES) | EC50 [1] | EC50 [2] | EC50 [3] | other results |
| --- | --- | --- | --- | --- |
| CCCn1c(N2CCN(CC(=O)c3c(C)n(C)c4ccc(OC)cc34)CC2)nc2c1c(=O)[nH]c(=O)n2C | 18.9 µM (active) | 13.5 µM (active) | > 120 µM (not active) | – |
| CN(C)CCSc1n[nH]c2nc3ccccc3c-2n1 | – | – | – | AC50 [4]: 7.37 µM (active); EC50 (Protein RecA): 2.79 µM (active) |
| Cn1c(=O)[nH]c(=O)c2c1nc(Sc1ncccn1)n2CCCc1ccccc1 | 12.3 µM (active) | 18.4 µM (active) | 83.1 µM (active) | – |
| CCCCc1nc2[nH]nc(N)c2c2c1CCCC2 | 12.5 µM (active) | > 120 µM (not active) | 12 µM (active) | – |
| O=C(Nc1ccc(Br)cc1)c1ccc(F)c(S(=O)(=O)N2CCN(c3ccccn3)CC2)c1 | > 120 µM (not active) | 11.5 µM (active) | > 120 µM (not active) | – |
| Cc1[nH]c2ccc(-c3nnc(S)n3Cc3ccccc3)cc2c1C | > 120 µM (not active) | > 120 µM (not active) | > 120 µM (not active) | – |
| CCN(CC)CCn1cnc2c3c(OC)cccc3nc-2c1O | > 120 µM (not active) | > 120 µM (not active) | > 120 µM (not active) | – |
| NC(=O)c1ccccc1-c1nc(-n2ccnc2)c2ccccc2n1 | – | – | – | AC50 (Cytochrome P450 2D6): 39.8 µM (inconclusive) |
| CCOC(=O)c1cc(C)sc1NC(=O)CSC1=NCCS1 | – | – | – | AC50 [4]: 12 µM (active); EC50 (Protein RecA): 21.4 µM (active) |
| COc1ccc(NC(=O)CN(C)C(=O)c2cccc(S(=O)(=O)N3CCCc4ccccc43)c2)cc1 | > 120 µM (not active) | > 120 µM (not active) | 72.5 µM (active) | – |
| CCN(CC)CCN1C(=O)C(O)=C(C(C)=O)C1c1ccccc1[N+](=O)[O-] (stereo not given) | – | – | – | AC50 [4]: 10 µM (active); EC50 (Protein RecA): 3.71 µM (active) |
| Cn1cnc([N+](=O)[O-])c1Oc1cccc2ccccc12 | – | – | – | AC50 [4]: 28.3 µM (active); EC50 (Protein RecA): 13.2 µM (active) |
| CCOc1ccc(NC(=O)NCCN2CCN(c3cccc(C)c3C)CC2)cc1 | > 120 µM (not active) | > 120 µM (not active) | > 120 µM (not active) | – |
| CCOc1ccc(S(=O)(=O)N2CCC(C(=O)NCc3ccco3)CC2)cc1C | 17.5 µM (active) | > 120 µM (not active) | 37.6 µM (active) | – |
| Cc1c(Cl)cccc1N=C(S)N1CCN(S(=O)(=O)c2cccs2)CC1 | > 120 µM (not active) | 13.1 µM (active) | > 120 µM (not active) | – |
| CCCCOP(=O)(OCCCC)C1(NS(=O)(=O)c2ccccc2)C=CC(=O)c2ccccc21 (stereo not given) | – | – | – | AC50 [4]: 4.8 µM (active); EC50 (Protein RecA): 1.82 µM (active) |
| CC(C)C[C@H](NC(=O)c1nc[nH]c1C(=O)N[C@@H](CC(C)C)C(=O)OC(C)(C)C)C(=O)OC(C)(C)C | 16.8 µM (active) | 13.6 µM (active) | 8.87 µM (active) | – |
| COc1cccc(C(=O)/C=C/c2ccc(SC)cc2)c1 | – | – | – | AC50 (Cytochrome P450 2D6): 14.1 µM (inconclusive); AC50 (Cytochrome P450 2C9): 10 µM (inconclusive) |
| C[C@H]1CN(S(=O)(=O)c2cccc3cnccc23)CCN1 | – | – | – | AC50 (Cytochrome P450 2D6): 39.8 µM (inconclusive) |
| COc1ccc(N2Cc3ccc(OC)c(OC)c3C2=O)cc1 | – | – | – | EC50 [5]: 0.379 µM (active) |
| C=CCc1cc(Cl)ccc1OCCN(C)C | – | – | – | EC50 [6]: 0.559 µM (active); EC50 [7]: > 30 µM (not active); IC50 [8]: 157 µM (active) |
| CCn1cc(-c2nnnn2-c2ccc(Cl)cc2)c(=O)c2ccccc21 | – | – | – | AC50 (Cytochrome P450 2D6): 11.2 µM (inconclusive) |
| COCC(C)NCc1cccc([N+](=O)[O-])c1 (stereo not given) | – | – | – | AC50 (Cytochrome P450 2C19): 11.2 µM (inconclusive); AC50 (Cytochrome P450 2D6): 14.1 µM (inconclusive); AC50 (Cytochrome P450 2C9): 0.398 µM (inconclusive) |
| O=C(Cn1c(C(F)(F)F)nc2ccccc21)c1ccccc1 | – | – | – | AC50 (Cytochrome P450 2D6): 15.8 µM (inconclusive); AC50 (Cytochrome P450 1A2): 25.1 µM (inconclusive) |
| COc1cccc(/N=C2\C(Cl)=C(O)OC2OC(=O)c2ccco2)c1 (stereo not given) | – | – | – | AC50 [4]: 22.3 µM (active); EC50 (Protein RecA): 14.6 µM (active) |
| COc1cc(-c2nc3ccccn3c2/N=C/c2ccccc2)ccc1O | – | – | – | AC50 (Cytochrome P450 2D6): 28.2 µM (inconclusive) |
| Cc1ccc(O)c(/N=C/c2sc3ccccc3c2Cl)c1 | – | – | – | IC50 [8]: 39.2 µM (active) |
| COc1cc(OC)cc(C(=O)Oc2ccc(/C=N/Nc3nc4ccccc4s3)cc2OC)c1 | – | – | – | EC50 [5]: 5.84 µM (active); EC50 (H4): 7.55 µM (active) |
| CC(C)c1ccc(/C=N/NC(=O)c2nnn(-c3nonc3N)c2CSC2=NCCS2)cc1 | – | – | – | AC50 [4]: 9.47 µM (active); EC50 (Protein RecA): 8.86 µM (active) |
